Cc1c(N)cccc1C(=O)O
solubility (mole fraction)
Conditions	288.15 K	293.15 K	298.15 K	303.15 K	308.15 K	313.15 K	318.15 K	323.15 K	328.15 K
in acetonitrile	0.0004	0.000499	0.000728	0.000986	0.00126	0.0017	0.00202	0.00251	0.00307
in ethanol	0.00373	0.00422	0.00496	0.00628	0.00749	0.00891	0.0105	0.0124	0.0151
in ethyl acetate	0.000961	0.00107	0.00135	0.00173	0.0022	0.00283	0.0035	0.00436	0.00524
in isobutanol	0.00112	0.00132	0.00191	0.00254	0.00322	0.00427	0.00534	0.0069	0.00839
in isopropanol	0.00196	0.00228	0.00298	0.00386	0.00494	0.00629	0.0079	0.00991	0.0123
in methanol	0.00532	0.0059	0.00682	0.00844	0.00979	0.0115	0.0136	0.0159	0.0178
in methyl acetate	0.000975	0.00127	0.00179	0.0024	0.00292	0.00347	0.00428	0.00514	0.00571
in n-butanol	0.00236	0.00269	0.00333	0.00442	0.00535	0.00659	0.0079	0.00962	0.0115
in n-propanol	0.00245	0.00277	0.00341	0.00444	0.00542	0.00672	0.00824	0.0101	0.0123
in n-propyl acetate	0.000796	0.000942	0.00109	0.00142	0.00176	0.00225	0.00286	0.00368	0.0047
in sec-butanol	0.00178	0.00209	0.00285	0.00388	0.00513	0.00675	0.00858	0.0111	0.0138
in water	0.000581	0.000588	0.00062	0.000669	0.000718	0.00079	0.000887	0.00098	0.00105
